# Data from US20120129897A1, “BIS HETEROARYL INHIBITORS OF PRO-MATRIX METALLOPROTEINASE ACTIVATION” (priority 2010, published 2012).
# Structures can show the parent of a compound that is named as a salt.
# How the values were obtained:
# [1] = molecular target: T1, full-length proMMP9(1-707) (SEQ ID NO:1) (Homo sapiens, UniProt P14780, R574P); assay: proMMP9/MMP3 P126 Activation Assay; format: biochemical; conditions: 20 nM proMMP9, 20 nM MMP3, 80 min 37° C.
# T1 construct: made in house; host or cells: HEK293 (proMMP9, secreted); E. coli (MMP3)
# T1 sequence (P14780 20-707 R574P): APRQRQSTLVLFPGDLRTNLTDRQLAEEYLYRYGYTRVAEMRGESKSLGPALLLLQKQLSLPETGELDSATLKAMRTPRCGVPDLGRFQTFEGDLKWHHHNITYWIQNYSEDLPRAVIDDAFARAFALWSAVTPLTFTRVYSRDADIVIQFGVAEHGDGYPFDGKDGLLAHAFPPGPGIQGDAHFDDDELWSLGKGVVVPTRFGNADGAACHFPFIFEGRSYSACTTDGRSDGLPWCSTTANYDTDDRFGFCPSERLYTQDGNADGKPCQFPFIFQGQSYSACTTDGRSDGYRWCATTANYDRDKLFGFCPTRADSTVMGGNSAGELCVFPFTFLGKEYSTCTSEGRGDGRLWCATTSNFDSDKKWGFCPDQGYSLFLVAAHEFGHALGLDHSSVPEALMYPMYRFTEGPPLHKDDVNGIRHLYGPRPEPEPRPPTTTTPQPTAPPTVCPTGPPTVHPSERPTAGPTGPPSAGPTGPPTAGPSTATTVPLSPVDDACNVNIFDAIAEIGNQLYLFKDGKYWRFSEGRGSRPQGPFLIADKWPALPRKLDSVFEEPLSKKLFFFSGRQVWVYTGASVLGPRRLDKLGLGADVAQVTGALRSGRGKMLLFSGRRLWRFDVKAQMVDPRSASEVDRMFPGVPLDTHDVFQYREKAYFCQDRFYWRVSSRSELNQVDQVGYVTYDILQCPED
# Protocol: The reaction volume was 50 μL. […] Reactivity of residual MMP3 towards P-126 substrate was minimal under these conditions.
# [2] = molecular target: T2, proMMP9(67-444;ΔFnII) (SEQ ID NO:5) (Homo sapiens, UniProt P14780, DEL216-390); assay: ThermoFluor binding assay with proMMP9(67-444;ΔFnII)
# T2 construct: start methionine (N); made in house; host or cells: E. coli BL21(DE3) RIL
# T2 sequence (P14780 with tags, fused parts or gaps DEL216-390): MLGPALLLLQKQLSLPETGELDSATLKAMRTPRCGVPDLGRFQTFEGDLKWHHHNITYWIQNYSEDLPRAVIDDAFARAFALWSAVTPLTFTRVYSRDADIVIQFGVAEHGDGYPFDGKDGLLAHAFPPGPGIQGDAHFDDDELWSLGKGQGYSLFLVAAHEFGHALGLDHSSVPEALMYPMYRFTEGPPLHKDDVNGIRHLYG
# Protocol: (§1) The ThermoFluor® (TF) assay is a 384-well plate-based binding assay that measures thermal stability of proteins (Biomol Screen 2001, 6, 429-40; Biochemistry 2005, 44, 5258-66). The experiments were carried out using instruments available from Johnson & Johnson Pharmaceutical Research & Development, LLC. TF dye used in all experiments was […] (1,8-ANS) (Invitrogen: A-47).
# (§2) Compounds were arranged in a pre-dispensed plate (Greiner Bio-one: 781280), wherein compounds were serially diluted in 100% DMSO across 11 columns within a series. Columns 12 and 24 were used as DMSO reference and contained no compound. For multiple compound concentration-response experiments, the compound aliquots ([…]) were robotically predispensed directly into black 384-well polypropylene PCR microplates (Abgene: TF-0384/k) using a Cartesian Hummingbird liquid handler (DigiLab, Holliston, Mass.). Following compound dispense, protein and dye solutions were added to achieve the final assay volume of 3 μL. The assay solutions were overlayed with 1 μL of silicone oil (Fluka, type DC 200: 85411) to prevent evaporation.
# (§3) Assay plates were robotically loaded onto a thermostatically controlled PCR-type thermal block and then heated from 40 to 90° C. at a ramp-rate of 1° C./min for all experiments. Fluorescence was measured by continuous illumination with UV light (Hamamatsu LC6) supplied via fiber optics and filtered through a band-pass filter (380-400 nm; >60D cutoff). Fluorescence emission of the entire 384-well plate was detected by measuring light intensity using a CCD camera (Sensys, Roper Scientific) filtered to detect 500±25 nm, resulting in simultaneous and independent readings of all 384 wells. A single image with 20-sec exposure time was collected at each temperature, and the sum of the pixel intensity in a given area of the assay plate was recorded vs temperature and fit to standard equations to yield the Tm (J Biomol Screen 2001, 6, 429-40).
# (§4) Thermodynamic parameters necessary for fitting compound binding for each proMMP were estimated by differential scanning calorimetry (DSC) and from ThermoFluor® data. The heat capacity of unfolding for each protein was estimated from the molecular weight and from ThermoFluor® dosing data.
# The protein sample preparations had to include a desalting buffer exchange step via a PD-10 gravity column (GE Healthcare). The desalting buffer exchange was performed prior to diluting the protein to the final assay concentration of 3.5 μM proMMP9(67-444;ΔFnII) (SEQ ID NO:5). The concentration of proMMP9(67-444;ΔFnII) (SEQ ID NO:5) was determined spectrophotometrically based on a calculated extinction coefficient of ε280=33900 M^−1cm^−1, a calculated molecular weight of 22.6 kDa, and calculated pI of 5.20. ThermoFluor® reference conditions were defined as follows: 80 μg/mL (3.5 μM) proMMP9(67-444;ΔFnII) (SEQ ID NO:5), 50 μM 1,8-ANS, pH 7.0 Buffer (50 mM HEPES pH 7.0, 100 mM NaCl, 0.001% Tween-20, 2.5 mM MgCl2, 300 μM CaCl2). The thermodynamic parameters for proMMP9(67-444;ΔFnII) (SEQ ID NO:5) are as follows: Tm (° C.)=63 (+/−0.1), ΔUH(Tm) (cal mol^−1)=105000(+/−5000), ΔUS(Tm) (cal mol^−1 K^−1)=[…], ΔUCp (cal mol^−1 K^−1)=2000.
# [3] = molecular target: T3, proMMP9(20-445;ΔFnII) (SEQ ID NO:6) (Homo sapiens, UniProt P14780, DEL216-390); assay: ThermoFluor binding assay with proMMP9(20-445;ΔFnII)
# T3 construct: start methionine (N); made in house; host or cells: E. coli BL21(DE3) RIL
# T3 sequence (P14780 with tags, fused parts or gaps DEL216-390): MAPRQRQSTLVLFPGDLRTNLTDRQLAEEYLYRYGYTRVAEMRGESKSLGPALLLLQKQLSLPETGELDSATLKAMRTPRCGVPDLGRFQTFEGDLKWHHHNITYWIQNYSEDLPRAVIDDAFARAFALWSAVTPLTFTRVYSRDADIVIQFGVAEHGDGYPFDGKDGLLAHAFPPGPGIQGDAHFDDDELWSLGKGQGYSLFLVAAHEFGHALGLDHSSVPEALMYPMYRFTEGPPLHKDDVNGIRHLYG
# Protocol: as §1, §2, §3, §4
# The protein sample preparations included a desalting buffer exchange step via a PD-10 gravity column (GE Healthcare). The desalting buffer exchange was performed prior to diluting the protein to the final assay concentration of 2.8 μM proMMP9(20-445;ΔFnII) (SEQ ID NO:6). The concentration of proMMP9(20-445;ΔFnII) (SEQ ID NO:6) was determined spectrophotometrically based on a calculated extinction coefficient of ε280=39880 M^−1cm^−1, a calculated molecular weight of 28.2 kDa, and calculated pI of 5.5. ThermoFluor® reference conditions were define as follows: 80 μg/mL (2.8 μM) proMMP9(20-445;ΔFnII) (SEQ ID NO:6), 50 μM 1,8-ANS, pH 7.0 Buffer (50 mM HEPES pH 7.0, 100 mM NaCl, 0.001% Tween-20, 2.5 mM MgCl2, 300 μM CaCl2). The thermodynamic parameters for proMMP9(20-445;ΔFnII) (SEQ ID NO:6) are as follows: Tm (° C.)=72 (+/−0.1), ΔUH(Tm) (cal mol^−1)=160000(+/−5000), ΔUS(Tm) (cal mol^−1 K^−1)=434, ΔUCp ([…])=2400.
# [4] = molecular target: T4, proMMP13(1-268) (SEQ ID NO:7) (Homo sapiens, UniProt P45452); assay: ThermoFluor binding assay with proMMP13(1-268); design: 6x-histidine (C); made in house
# Protocol: as §1, §2, §3, §4
# The proMMP13(1-268) (SEQ ID NO:7) protein sample preparations included a desalting buffer exchange step via a PD-10 gravity column (GE Healthcare). The desalting buffer exchange was performed prior to diluting the protein to the final assay concentration of 3.5 μM. The concentration of proMMP13(1-268) (SEQ ID NO:7) was estimated spectrophotometrically based on a calculated extinction coefficient of ε280=37000 M^−1cm^−1, a calculated molecular weight of 30.8 kDa, and calculated pI of 5.33. ThermoFluor® reference conditions were defined as follows: 100 μg/mL proMMP13(1-268) (SEQ ID NO:7), 25 μM 1,8-ANS, pH 7.0 Buffer (50 mM HEPES pH 7.0, 100 mM NaCl, 0.001% Tween-20, 2.5 mM MgCl2, 300 μM CaCl2). The thermodynamic parameters for proMMP13(1-268) (SEQ ID NO:7) are as follows: Tm (° C.)=67 (+/−0.1), ΔUH(Tm) (cal mol^−1)=107000(+/−5000), ΔUS(Tm) (cal mol^−1 K^−1)=318, ΔUCp (cal mol^−1 K^−1)=2600.
# [5] = molecular target: T4, proMMP13(1-268) (SEQ ID NO:7); assay: ProMMP13/Plasmin P126 Activation Assay; format: biochemical; design: 6x-histidine (C); made in house; host or cells: HEK293 (transient transfection, secreted); conditions: 8 nM proMMP13, 16 nM plasmin, 40 min 37° C.
# Protocol: On the day of assay, proMMP13(1-268) (SEQ ID NO:7) purified from HEK293 cells and plasmin were diluted to 160 nM and 320 nM, respectively, in assay buffer. The reaction volume was 50 μL. […] The plate was sealed and incubated for 40 min at 37° C. […] Plasmin was not reactive towards P-126 substrate under these conditions.
SMILES,IC50 [1] [µM],Kd [2] [µM],Kd [3] [µM],Kd [4] [µM],IC50 [5] [µM]
"Cc1nc(C)n(C)c1-c1csc(Nc2cc(S(N)(=O)=O)ccc2OC(C)C)n1 [Example 1, 4-Isopropoxy-3-[4-(2,3,5-trimethyl-3H-imidazol-4-yl)-thiazol-2-ylamino]-benzenesulfonamide]",2.3,8.6,4.7,1.6,
"Cc1nc(-c2csc(Nc3cc(S(N)(=O)=O)ccc3OC(C)C)n2)c(C)n1C [Example 2, 4-Isopropoxy-3-[4-(1,2,5-trimethyl-1H-imidazol-4-yl)-thiazol-2-ylamino]-benzenesulfonamide.TFA]",~6,33.2,12,10,
"CCOc1ccc(C#N)cc1Nc1nc(-n2cc(C)nc2C)cs1 [Example 4, 3-[4-(2,4-Dimethyl-imidazol-1-yl)-thiazol-2-ylamino]-4-ethoxy-benzonitrile]",~5,36,76,> 95,
"CCOc1ccc(C#N)cc1Nc1nc(-c2cnn(C)c2)cs1 [Example 5, 4-Ethoxy-3-[4-(1-methyl-1H-pyrazol-4-yl)-thiazol-2-ylamino]-benzonitrile]",,14,8.9,17,

# Other lines, results leading:
IC50 [1] [µM],Kd [2] [µM],Kd [3] [µM],Kd [4] [µM],IC50 [5] [µM],SMILES
0.79,> 95,4.8,5.1,,"Cc1nc(-c2csc(Nc3cc(C(N)=O)ccc3OC(C)C)n2)c(C)[nH]1 [Example 3, 3-[4-(2,5-Dimethyl-1H-imidazol-4-yl)-thiazol-2-ylamino]-4-isopropoxy-benzamide.TFA]"
0.27,7.2,0.17,6.1,6,"Cc1nc(C)c(-c2csc(Nc3cc(C(N)=O)ccc3OC(C)C)n2)o1 [Example 6, 3-[4-(2,4-Dimethyl-oxazol-5-yl)-thiazol-2-ylamino]-4-isopropoxy-benzamide]"
1.9,42,5.9,,,"Cc1nc(C)n(C)c1-c1csc(Nc2cc(C(N)=O)ccc2OC(C)C)n1 [Example 7, 4-Isopropoxy-3-[4-(2,3,5-trimethyl-3H-imidazol-4-yl)-thiazol-2-ylamino]-benzamide.TFA]"
